The values below come from patent US12310985B2, “Composition and method for treatment of diabetes” (SHENZHEN PROFOUND VIEW PHARMACEUTICAL TECHNOLOGY, priority 2020, dated 2025).

Holding throughout (type): in vivo
Series [1] deals with C57BL/6 male mice, high energy feed + STZ diabetic model. The series can be described thus: Serum insulin content. Conditions: end of experiment; Sample 10 mg/kg, Positive control 22.5 mg/kg. Here is the method: (§1) After each group was given a maintenance feed for 1 week, except for the negative control group, the other groups were replaced with the high energy feed from 3.1.7.1. After 3 weeks of feeding, each group was fasted for 24 h. Except for the negative control group, the other groups were intraperitoneally injected with 5 mg/mL STZ solution at a dose of 20 mL/kg bodyweight. All groups were fed for 4 days. Fasting blood glucose and glucose tolerance were measured on the 5th day, and the test was terminated the next day. […]
(§2) On the 5th day after intraperitoneal injection of STZ, the mice in each group were fasted for about 5 hours with water provided. […] After 20 minutes, each group was intragastrically administered with 0.125 g/mL glucose solution at 20 mL/kg bodyweight, and the blood glucose level was measured at 0.5, 1, 1.5, 2 h after the administration of the glucose solution. […]
(§3) At the end of the experiment, serum was collected for assaying serum insulin, triglycerides, and total cholesterol. The insulin resistance index was calculated.

The test system is the same in series [2]. The series can be described thus: Pancreatic insulin content (ELISA). Conditions: end of experiment, Sample 10 mg/kg, Positive control 22.5 mg/kg. Here is the method:
(§4) After each group was given a maintenance feed for 1 week, except for the negative control group, the other groups were replaced with the high energy feed from 3.1.7.1. After 3 weeks of feeding, each group was fasted for 24 h. Except for the negative control group, the other groups were intraperitoneally injected with 5 mg/mL STZ solution at a dose of 20 mL/kg bodyweight. All groups were fed for 4 days. Fasting blood glucose and glucose tolerance were measured on the 5th day, and the test was terminated the next day.
From the feeding of the maintenance feed, the sample group was intraperitoneally injected with the test sample solution once per day at 20 mL/kg bodyweight, the negative control group and the model control group were intraperitoneally injected with sodium chloride solution, and the positive control group was intragastrically administered with pioglitazone hydrochloride solution at a dose of 20 mL/kg bodyweight for 34 days until the end of the test. […]
as §2

Series [3] has the same test system. The series can be described thus: Fasting blood glucose index. Here is the method:
as §4
(§5) From the feeding of the maintenance feed, the sample group was intraperitoneally injected with the test sample solution once per day at 20 mL/kg bodyweight, the negative control group and the model control group were intraperitoneally injected with sodium chloride solution, and the positive control group was intragastrically administered with pioglitazone hydrochloride solution at a dose of 20 mL/kg bodyweight for 34 days until the end of the test. On the day of injection of STZ, each group was administered 4 h after STZ injection.
On the 5th day after intraperitoneal injection of STZ, the mice in each group were fasted for about 5 hours with water provided. After measuring the fasting blood glucose level (0 h), the sample group and positive control group were intraperitoneally injected with the corresponding drugs. The negative control group and the model control group were intraperitoneally injected with sodium chloride solution. After 20 minutes, each group was intragastrically administered with 0.125 g/mL glucose solution at 20 mL/kg bodyweight, and the blood glucose level was measured at 0.5, 1, 1.5, 2 h after the administration of the glucose solution. On the next day, the mice in each group were fasted for 5 h after the administration. The mice were anesthetized with 3% sodium pentobarbital solution in an amount of 10 mL/kg bodyweight, and sacrificed after collecting the eyeballs and bloods. The blood samples were centrifuged at 3000 r/min for 10 min, and the sera were collected for the detection of serum insulin, triglycerides, and total cholesterol. […]

Series [4] shares this test system. The series can be described thus: Glucose tolerance index. Conditions: Sample 10 mg/kg, Positive control 22.5 mg/kg. As for the experimental part:
as §4, §5
On the 5th day after intraperitoneal injection of STZ, the mice in each group were fasted for about 5 hours with water provided. After measuring the fasting blood glucose level (0 h), the sample group and positive control group were intraperitoneally injected with the corresponding drugs. The negative control group and the model control group were intraperitoneally injected with sodium chloride solution. After 20 minutes, each group was intragastrically administered with 0.125 g/mL glucose solution at 20 mL/kg bodyweight, and the blood glucose level was measured at 0.5, 1, 1.5, 2 h after the administration of the glucose solution. On the next day, the mice in each group were fasted for 5 h after the administration. The mice were anesthetized with 3% sodium pentobarbital solution in an amount of 10 mL/kg bodyweight, and sacrificed after collecting the eyeballs and bloods. The blood samples were centrifuged at 3000 r/min for 10 min, and the sera were collected for the detection of serum insulin, triglycerides, and total cholesterol. At the same time, the pancreas of each animal was collected. Six animals in each group were fixed with 10% paraformaldehyde for HE staining and insulin immunohistochemical staining in pancreas. The remaining 6 animals were preserved at −80° C. for insulin content determination.
Calculate the area under the blood glucose curve at 0, 0.5, 1, 1.5, 2 h after glucose administration. The formula is as follows:
Area under the blood glucose curve: [(0 h blood glucose+0.5 h blood glucose)×0.5]/2+[(0.5 h blood glucose+1 h blood glucose)×0.5]/2+[(1 h blood glucose+1.5 h) Blood glucose level)×0.5]/2+[(1.5 h blood glucose level+2 h blood glucose value)×0.5]/2.

The test system is the same in series [5]. The series can be described thus: Serum cholesterol (TC) and triglyceride (TG) content. Conditions: serum at end of experiment; Sample 10 mg/kg, Positive control 22.5 mg/kg. Here is the method: as §1, §2, §3
A short description of series [6]: Body weight of mice during experiments (high energy feed + STZ diabetic model). Conditions: Sample 10 mg/kg i.p., Positive control 22.5 mg/kg intragastric, 1 time/day.
Description: 3.2.1 C57BL/6 mice are more commonly used in diabetes tests. 90 C57BL/6 male mice (SPF level) with a body weight of 18.8-24.2 g at the beginning of the experiment were purchased from Guangdong Medical Laboratory Animal Center (Experimental Animal Production License No. SCXK (Yue) 2018-0002; Animal Certificate No. 44007200059759);
as §4, §5
Weighed at the beginning of the trial, at the end of the trial, and once a week during the trial.

Where a name gives a salt, the structure may show the parent alone.

In the case of `CCc1ccc(CCOc2ccc(CC3SC(=O)NC3=O)cc2)nc1` (stereo not shown) [Positive control, Pioglitazone hydrochloride], the serum insulin content in series [1] came out at 28.2 ± 3.6 mIU/mL. Also, the pancreatic insulin content in series [2] came out at 8.4 ± 3.0 mIU/mL. In series [3] (5th day after STZ, fasting about 5 h, Sample 10 mg/kg i.p., Positive control 22.5 mg/kg intragastric, 1 time/day), the “Fasting blood glucose index, Post experiment” value stood at 13.8 ± 2.8 mmol/L. In addition, the “Decrease percentage of blood glucose” value in series [3] ((prior − post)/prior × 100%, Sample 10 mg/kg i.p., Positive control 22.5 mg/kg intragastric) is −21.8 ± 39.0%. Further, the “Fasting blood glucose index, Prior to Experiment” value in series [3] (prior to experiment (baseline), fasting about 5 h) was 12.0 ± 2.6 mmol/L. The “Glucose tolerance index, blood glucose” value in series [4] (0 h, 5th day after STZ) was found to be 13.8 ± 2.8 mmol/L; in series [4] (0.5 h after glucose administration) it was 30.1 ± 5.4 mmol/L; in series [4] (1 h after glucose administration), 26.9 ± 7.0 mmol/L; in series [4] (1.5 h after glucose administration) it was 20.7 ± 6.2 mmol/L; in series [4] (2 h after glucose administration), 17.9 ± 6.3 mmol/L. Moreover, the TC in series [5] is given as 4.76 ± 0.56 mmol/L. For the same compound, in series [5], the TG came out at 0.76 ± 0.14 mmol/L. Moreover, the Bodyweight is reported as 22.2 ± 1.2 g in series [6] (d 2); 23.0 ± 1.3 g in series [6] (d 9); 24.2 ± 1.2 g in series [6] (d 16); 25.6 ± 1.5 g in series [6] (d 23); 26.2 ± 1.6 g in series [6] (d 29); 26.0 ± 1.4 g in series [6] (d 32). Further, the Bodyweight in series [6] (d 35) stood at 25.8 ± 1.3 g.
